ChEMBL document CHEMBL1146396, “(2E,9E)-pyronaamidine 9-(N-methylimine), a new imidazole alkaloid from the northern Mariana islands sponge Leucetta sp. cf. chagosensis” (1997)
Converted amounts (≈) assume the structure as drawn.

Experiments:
Assay type in all cases: functional
MCF7 = experiment: Cytotoxicity against human MCF7 cells
A549 = experiment: Cytotoxicity against human A549 cells
HT-29 = experiment: Cytotoxicity against human HT-29 cells
Candida albicans = experiment: Antimicrobial activity against Candida albicans at 100 ug/disk; conditions: read-out: IZ
Bacillus subtilis = experiment: Antimicrobial activity against Bacillus subtilis at 100 ug/disk; conditions: read-out: IZ

C/N=C1N=C(/N=c2\[nH]c(Cc3ccc(OC)cc3)c(Cc3ccc(OC)c(OC)c3O)n2C)C(=O)N\1C
GI50 (MCF7): 3 mg/L (≈ 5.92 µM) | GI50 (A549): 6 mg/L (≈ 11.8 µM) | GI50 (HT-29): 6 mg/L (≈ 11.8 µM)

COc1ccc(Cc2nc(/N=C3\NC(=O)N(C)C3=O)n(C)c2Cc2ccc(OC)c(OC)c2O)cc1 [PYRONAAMIDINE]
zone of inhibition at 100 µg/disc (Candida albicans): 7 mm | zone of inhibition at 100 µg/disc (Bacillus subtilis): 10 mm
